The compounds below were run against T1, APOL1 G2 (Homo sapiens, UniProt O14791, DEL388-389) (assay: APOL1-mediated calcium transport (calcium influx) assay, HEK T-REx/GCaMP6f/APOL1 G2 K6.3 cells, FLIPR TETRA). Conditions: prevention of calcium influx; geometric mean of at least 2 assay runs; † = average of a technical replicate from a single assay run.
T1 construct: expressed in transfected cells; host or cells: HEK293 T-REx clonal line stably expressing GCaMP6f (HEK T-REx/GCaMP6f/APOL1 G2 K6.3), doxycycline induced
T1 sequence (O14791 with tags, fused parts or gaps DEL388-389): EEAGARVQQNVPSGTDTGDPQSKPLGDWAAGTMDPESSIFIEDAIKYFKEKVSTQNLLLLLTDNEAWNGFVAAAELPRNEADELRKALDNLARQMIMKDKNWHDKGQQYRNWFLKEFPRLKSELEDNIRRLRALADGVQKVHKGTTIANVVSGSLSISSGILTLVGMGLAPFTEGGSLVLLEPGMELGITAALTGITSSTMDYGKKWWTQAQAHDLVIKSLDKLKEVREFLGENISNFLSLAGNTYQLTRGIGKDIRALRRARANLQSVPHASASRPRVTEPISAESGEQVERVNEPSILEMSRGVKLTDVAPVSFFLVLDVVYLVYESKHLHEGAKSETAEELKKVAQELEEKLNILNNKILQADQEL
Assay type: cell-based
Method in brief: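 A HEK293 T-REx clone stably expressing GCaMP6f had APOL1 G2 induced with doxycycline (20 ng/mL solution added) for 6 h. Cells were then washed into Ca2+-free Tyrode's buffer (pH 7.4) and preincubated with compounds (duplicate 8-point) for 10 min at room temperature. Ca2+ injection to 5 mM final produced FLIPR GCaMP fluorescence, giving AC50 for influx inhibition (geometric mean, ≥2 runs).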
With C[C@]1(O)C[C@@H](n2nnc3cc(OCCN4CCC5(CC4)C(=O)Nc4ccc(C#N)cc45)cc(C(F)(F)F)c32)C1 [Compound 435, 2-oxo-1′-[2-({1-[(cis)-3-hydroxy-3-methylcyclobutyl]-7-(trifluoromethyl)-1H-1,2,3-benzotriazol-5-yl}oxy)ethyl]-1,2-dihydrospiro[indole-3,4′-piperidine]-5-carbonitrile] the AC50 was 1170 nM.
C[C@]1(O)C[C@@H](n2cnc3cc(OCCN4CCC5(CC4)C(=O)Nc4ccc(Cl)cc45)cc(C#N)c32)C1 [Compound 439, 5-(2-{5-chloro-2-oxo-1,2-dihydrospiro[indole-3,4′-piperidin]-1′-yl}ethoxy)-1-[(cis)-3-hydroxy-3-methylcyclobutyl]-1H-1,3-benzodiazole-7-carbonitrile] was tested, and the AC50 was 603 nM.
In the case of C[C@]1(O)C[C@@H](n2nnc3cc(OCCN4CCC5(CC4)C(=O)Nc4ccc(Cl)cc45)cnc32)C1 [Compound 440, 5-chloro-1′-[2-({3-[(cis)-3-hydroxy-3-methylcyclobutyl]-3H-[1,2,3]triazolo[4,5-b]pyridin-6-yl}oxy)ethyl]-1,2-dihydrospiro[indole-3,4′-piperidin]-2-one], the AC50 is reported as 552 nM.
Work on Cc1nc2cc(OCCN3CCC4(CC3)C(=O)Nc3ccc(Cl)cc34)cc(C(F)(F)F)c2n1[C@H]1C[C@@](C)(O)C1 [Compound 442, 5-chloro-1′-[2-({2-methyl-1-[(cis)-3-hydroxy-3-methylcyclobutyl]-7-(trifluoromethyl)-1H-1,3-benzodiazol-5-yl}oxy)ethyl]-1,2-dihydrospiro[indole-3,4′-piperidin]-2-one] yielded an AC50 of 2140 nM.
Cc1nc2cc(OCCN3CCC4(CC3)C(=O)Nc3ccc(C#N)cc34)cc(C(F)(F)F)c2n1[C@H]1C[C@@](C)(O)C1 [Compound 443, 1′-[2-({2-methyl-1-[(cis)-3-hydroxy-3-methylcyclobutyl]-7-(trifluoromethyl)-1H-1,3-benzodiazol-5-yl}oxy)ethyl]-2-oxo-1,2-dihydrospiro[indole-3,4′-piperidine]-5-carbonitrile] gave an AC50 of 2670 nM.
C[C@]1(O)C[C@@H](n2cnc3cc(OCCN4CCC5(CC4)C(=O)Nc4ccc(C(F)F)cc45)cc(C(F)(F)F)c32)C1 [Compound 450, 5-(difluoromethyl)-1′-[2-({1-[(cis)-3-hydroxy-3-methylcyclobutyl]-7-(trifluoromethyl)-1H-1,3-benzodiazol-5-yl}oxy)ethyl]-1,2-dihydrospiro[indole-3,4′-piperidin]-2-one] gave an AC50 of 2270 nM.
Work on C[C@]1(O)C[C@@H](n2cnc3cc(OCCN4CCC5(CC4)C(=O)Nc4c(I)cc(Cl)cc45)cc(C(F)(F)F)c32)C1 [Compound 453, 5-chloro-7-iodo-1′-[2-({1-[(cis)-3-hydroxy-3-methylcyclobutyl]-7-(trifluoromethyl)-1H-1,3-benzodiazol-5-yl}oxy)ethyl]-1,2-dihydrospiro[indole-3,4′-piperidin]-2-one] yielded an AC50 of 935 nM.
With C[C@]1(O)C[C@@H](n2cnc3cc(OCCN4CCC5(CC4)C(=O)Nc4ccc(Cl)cc45)cc(F)c32)C1 [Compound 454, 5-chloro-1′-(2-((7-fluoro-1-((cis)-3-hydroxy-3-methylcyclobutyl)-1H-benzo[d]imidazol-5-yl)oxy)ethyl)spiro[indoline-3,4′-piperidin]-2-one] the AC50 was 473 nM.
Work on CC1(O)CC2(CN(c3ncc(OCCN4CCC5(CC4)C(=O)Nc4ccc(Cl)cc45)cn3)C2)C1 [Compound 459, 5-chloro-1′-{2-[(2-{6-hydroxy-6-methyl-2-azaspiro[3.3]heptan-2-yl}pyrimidin-5-yl)oxy]ethyl}-1,2-dihydrospiro[indole-3,4′-piperidin]-2-one] yielded an AC50 of 370 nM.
C[C@]1(O)C[C@@H](N2C(=O)C3(CC3)c3cc(OCCN4CCC5(CC4)C(=O)Nc4ccc(Cl)cc45)cnc32)C1 [Compound 460, 5-chloro-1′-(2-{2′-oxo-1′-[(cis)-3-hydroxy-3-methylcyclobutyl]-1′,2′-dihydrospiro[cyclopropane-1,3′-pyrrolo[2,3-b]pyridin]-5′-yloxy}ethyl)-1,2-dihydrospiro[indole-3,4′-piperidin]-2-one] gave an AC50 of 317 nM.
In the case of [2H]C([2H])([2H])[C@]1(O)C[C@@H](N2C(=O)CCc3cc(OCCN4CCC5(CC4)C(=O)Nc4ccc(Cl)cc45)cnc32)C1 [Compound 461, 5-chloro-1′-[2-({7-oxo-8-[(cis)-3-hydroxy-3-(^2H3)methylcyclobutyl]-5,6,7,8-tetrahydro-1,8-naphthyridin-3-yl}oxy)ethyl]-1,2-dihydrospiro[indole-3,4′-piperidin]-2-one], the AC50 is reported as 676 nM.
C[C@]1(O)C[C@@H](n2ncc3cc(OCCN4CCC5(CC4)C(=O)Nc4ccc(Cl)cc45)cc(C(F)(F)F)c32)C1 [Compound 464, 5-chloro-1′-[2-({1-[(cis)-3-hydroxy-3-methylcyclobutyl]-7-(trifluoromethyl)-1H-indazol-5-yl}oxy)ethyl]-1,2-dihydrospiro[indole-3,4′-piperidin]-2-one] gave an AC50 of 1190 nM.
With C[C@]1(O)C[C@@H](n2ncc3cc(OCCN4CCC5(CC4)C(=O)Nc4ccc(C#N)cc45)cc(C(F)(F)F)c32)C1 [Compound 465, 2-oxo-1′-[2-({1-[(cis)-3-hydroxy-3-methylcyclobutyl]-7-(trifluoromethyl)-1H-indazol-5-yl}oxy)ethyl]-1,2-dihydrospiro[indole-3,4′-piperidine]-5-carbonitrile] the AC50 was 748 nM.
In the case of C[C@]1(O)C[C@@H](n2c(=O)[nH]c3cc(OCCN4CCC5(CC4)C(=O)Nc4ccc(Cl)cc45)cc(C(F)(F)F)c32)C1 [Compound 468, 5-chloro-1′-[2-({2-oxo-1-[(cis)-3-hydroxy-3-methylcyclobutyl]-7-(trifluoromethyl)-2,3-dihydro-1H-1,3-benzodiazol-5-yl}oxy)ethyl]-1,2-dihydrospiro[indole-3,4′-piperidin]-2-one], the AC50 is reported as 867 nM.
Compound C[C@]1(O)C[C@@H](n2c(=O)[nH]c3cc(OCCN4CCC5(CC4)C(=O)Nc4ccc(C#N)cc45)cc(C(F)(F)F)c32)C1 [Compound 470, 2-oxo-1′-[2-({2-oxo-1-[(cis)-3-hydroxy-3-methylcyclobutyl]-7-(trifluoromethyl)-2,3-dihydro-1H-1,3-benzodiazol-5-yl}oxy)ethyl]-1,2-dihydrospiro[indole-3,4′-piperidine]-5-carbonitrile] has an AC50 of 1110 nM.

— patent US12344610B2, “APOL1 inhibitors and methods of use” (Maze Therapeutics, Inc., priority 2022, dated 2025)
